Laboratory results reported in US20210386705A1, “APPLICATION OF CHIGLITAZAR AND RELATED COMPOUNDS THEREOF” (SHENZHEN CHIPSCREEN BIOSCIENCES CO., LTD., priority 2018, published 2021).
Where “and” joins values, the source holds several entries; their conditions need not be identical. Equal entries are not always repeated.

Experiments:
[1] = test system: monocytic cell line THP-1; assay: MCP-1-induced chemotaxis of THP-1 cells (Transwell); format: cell-based, human; settings: MCP-1 10 ng/mL, compound 3 μmol/L
Source text: In an in vitro model, migration of the monocytic cell line THP-1 induced by a certain concentration of chemokines (such as monocyte chemotactic protein 1, MCP-1), and accordingly such in vivo process was mimicked. Transwell technology, according to the manufacturer's instructions from Corning Inc., is considered that Traswell is a kind of a polycarbonate membrane filter as well as a permeable holder. The polycarbonate membrane divides a culture chamber into upper and lower ones, where the components of the culture medium in the lower chamber can affect the growth, differentiation and movement of the cells in upper chamber. Finally, the cell migration ability can be reflected by staining and counting the cells in the lower chamber.
When cultured to the log phase stage, THP-1 cells were resuspended, adjusted the concentration, and seeded in 24-well plates, followed by being pretreated with the culture media containing the compound to be tested (sodium chiglitazar) or the reference compound GFT505, pioglitazone, or PPARγ single agonist rosiglitazone (all purchased from Selleck) for 24 hours. Transwells were used according to the manufacturer's instructions. The culture media containing chemokine MCP-1 were added to the lower chamber (i.e., the bottom of the 24-well plates), and the cell suspension was added to the upper chamber and cultured for 4 hours. Later, the cells cultured on the “ceiling” surface of the polycarbonate membrane were fixed and stained with crystal violet solution (FIG. 6), and then the number of cells in the lower chamber was counted (Table 3).

[2] = test system: connective tissue growth factor (CTGF); assay: TGF-β1-activated hepatic stellate cells, CTGF gene expression (qPCR); format: cell-based, human; settings: TGF-β1 stimulation, 24 hours; FIG. 4
Procedure: Human primary hepatic stellate cells were seeded into 6-well plates with complete growth media (Stellate Cell Medium) for 24 hours, and then the culture media were replaced by fresh media (free of serum and growth factors) containing TGF-β1 and the compound to be tested (sodium chiglitazar) or the reference compound PPARγ/α dual agonist pioglitazone or PPARα/δ dual agonist GFT505 (both purchased from Selleck), and the cells were cultured for 24 hours. The total RNAs of the samples were extracted, and reverse transcription reaction was performed. Thereafter, a conventional PCR amplification kit (FastStart Universal SYBR@ Green Master (ROX), Roche) was used for further detection, where the PCR primers were designed with reference to the NCBI standard mRNA sequence of the target genes (Table 2). PCR reaction and detection were carried out on the ABI StepOnePlus real-time quantitative PCR instrument.
By calculating the relative amount of transcripts was calculate by “Delta-Delta CT method” (Livak et al. Methods 2001), and using ACTB as the housekeeping gene for normalization and the average data of untreated human hepatic stellate cells as a reference control, the relative change folds of gene expression were obtained (FIG. 4).

PPARγ = biological target: T1, PPARγ (Homo sapiens, UniProt P37231); assay: PPAR reporter gene model in L-02 cells, PPARγ; format: cell-based; settings: luciferase reporter, 24 hours drug, read-out: Half-maximal activation concentration of reporter gene AC50, PPARγ
T1 construct: expressed in transfected cells; host or cells: human hepatocyte cell line L-02
T1 sequence (P37231 1-505): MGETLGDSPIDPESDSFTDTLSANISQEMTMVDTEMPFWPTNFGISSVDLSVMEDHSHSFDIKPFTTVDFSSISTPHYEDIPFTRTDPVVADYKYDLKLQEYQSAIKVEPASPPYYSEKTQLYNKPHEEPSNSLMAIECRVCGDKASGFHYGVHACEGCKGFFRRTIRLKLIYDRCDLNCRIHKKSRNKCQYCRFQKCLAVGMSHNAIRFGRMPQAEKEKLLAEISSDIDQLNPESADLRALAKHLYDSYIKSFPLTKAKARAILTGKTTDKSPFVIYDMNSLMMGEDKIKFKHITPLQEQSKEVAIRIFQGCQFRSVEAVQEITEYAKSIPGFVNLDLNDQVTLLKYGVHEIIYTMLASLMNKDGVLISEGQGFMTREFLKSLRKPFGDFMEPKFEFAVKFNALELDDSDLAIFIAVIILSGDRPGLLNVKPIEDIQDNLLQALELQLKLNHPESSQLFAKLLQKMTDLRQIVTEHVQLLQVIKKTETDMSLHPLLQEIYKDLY
T1 sequence (P19793 1-462 partner): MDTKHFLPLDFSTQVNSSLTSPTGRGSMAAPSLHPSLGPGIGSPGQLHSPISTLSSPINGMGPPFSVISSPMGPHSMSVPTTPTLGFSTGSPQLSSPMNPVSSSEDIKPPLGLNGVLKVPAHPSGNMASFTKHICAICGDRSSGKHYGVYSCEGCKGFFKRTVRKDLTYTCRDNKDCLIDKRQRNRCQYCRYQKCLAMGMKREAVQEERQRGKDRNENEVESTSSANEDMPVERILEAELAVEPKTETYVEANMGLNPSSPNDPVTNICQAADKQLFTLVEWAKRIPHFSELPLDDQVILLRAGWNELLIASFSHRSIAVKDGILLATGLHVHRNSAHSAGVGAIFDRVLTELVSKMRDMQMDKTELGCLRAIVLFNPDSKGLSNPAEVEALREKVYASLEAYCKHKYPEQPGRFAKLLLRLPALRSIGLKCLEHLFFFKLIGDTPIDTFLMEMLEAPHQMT
Procedure: The PPAR reporter gene model comprises three subtypes of expression plasmids, RXR expression plasmid, plasmid with luciferase reporter gene, and GFP expression plasmid as an external reference. The human hepatocyte cell line L-02 cells were seeded into 96-well plates at the density of 15,000 cells/well with about 50% plating rate, followed by culturing for 24 hours at 37° C. […] The fluorescence intensity (at wavelength 485-527 nm) of green fluorescent protein (GFP) in each well was firstly detected as an internal standard by a fluorescence detector, and then 30 μL of luciferase substrates (Promega, E151A) were added to each well. After slightly shaking to mix well, the […] were detected. The relative reporter gene activation intensity was obtained by the ratio of the fluorescence detection signal of the drugs to be tested to that of the solvent control, with both the signals normalized to the internal standard GFP signal. The half-maximal activation (AC50) of the drugs to be tested was calculated with the activity at various concentrations (shown in Table 1).

[3] = 24 hours pretreatment, 4 hours migration

## O=C(c1ccc(F)cc1)c1ccccc1N[C@@H](Cc1ccc(OCCn2c3ccccc3c3ccccc32)cc1)C(=O)[O-].[Na+] [sodium chiglitazar]
[1]; [3]
  Cell concentration in lower chamber, Mean value: 10012 cells/ml
  Cell concentration in lower chamber, single replicates: 10630 cells/ml and 9760 cells/ml and 9646 cells/ml
[1]; Table 3 and FIG. 6
  Inhibition of migration activity of THP-1 induced by monocyte chemokine (in words): significantly inhibited
[1]; solvent control + MCP-1 = 100
  Migration rate: 33.12%
[2]
  Effect on expression of connective tissue growth factor: significant and dose-dependent inhibitory effect
PPARγ
  AC50: 91 nM
